Data reported in US20220395487A1, “RIG-I INNATE IMMUNE RECEPTOR ANTAGONISTS AND METHODS OF USING SAME” (YALE UNIVERSITY, priority 2019, published 2022).

Key:
[1] = biological target: T1, RIG-I (Homo sapiens, UniProt O95786); experiment: IFN-β/Firefly dual-luciferase reporter assay in HEK 293T cells transfected with hRIG-I; format: cell-based; conditions: HEK293T cells, SLR14 challenge
T1 sequence (O95786 1-925): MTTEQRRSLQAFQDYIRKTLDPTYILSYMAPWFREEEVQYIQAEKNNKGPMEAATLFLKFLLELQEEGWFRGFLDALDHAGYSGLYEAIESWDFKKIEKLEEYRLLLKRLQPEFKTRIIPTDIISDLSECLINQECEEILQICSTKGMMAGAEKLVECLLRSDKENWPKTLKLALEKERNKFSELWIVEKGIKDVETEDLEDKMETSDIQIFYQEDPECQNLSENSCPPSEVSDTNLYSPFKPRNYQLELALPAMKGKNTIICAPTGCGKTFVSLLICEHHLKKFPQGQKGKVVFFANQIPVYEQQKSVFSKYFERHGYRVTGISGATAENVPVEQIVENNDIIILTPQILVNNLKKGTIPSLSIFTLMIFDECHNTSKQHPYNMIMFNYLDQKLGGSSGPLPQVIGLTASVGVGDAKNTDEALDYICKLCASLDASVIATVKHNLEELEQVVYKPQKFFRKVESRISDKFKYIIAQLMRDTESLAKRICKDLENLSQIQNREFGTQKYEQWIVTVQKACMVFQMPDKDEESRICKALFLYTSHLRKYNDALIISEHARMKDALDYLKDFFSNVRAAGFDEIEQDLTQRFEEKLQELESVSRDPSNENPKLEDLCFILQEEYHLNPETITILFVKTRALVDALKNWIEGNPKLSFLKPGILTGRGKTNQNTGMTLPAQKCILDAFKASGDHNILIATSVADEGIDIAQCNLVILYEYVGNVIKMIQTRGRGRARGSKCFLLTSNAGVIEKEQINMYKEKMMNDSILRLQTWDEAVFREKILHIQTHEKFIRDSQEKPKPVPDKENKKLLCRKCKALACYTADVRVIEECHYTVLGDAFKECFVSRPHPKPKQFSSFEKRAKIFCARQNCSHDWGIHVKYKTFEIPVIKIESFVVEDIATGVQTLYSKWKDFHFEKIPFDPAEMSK
Protocol: Two different assays were used for evaluating RIG-I inhibition in cells. In the first assay, HEK 293T cells were used to test the influence of compounds on RIG-I signaling activity while simultaneously reporting on relative toxicity. In this case, inhibitor compounds were introduced via growth media replacement rather than by direct addition to cell plates. Specifically, HEK 293T cells (which express RIG-I only under the control of a transfected plasmid) were grown and maintained in T75 flasks containing Dulbecco's Modified Eagle Medium, DMEM (Life Technologies) supplemented with 10% heat-inactivated fetal bovine serum (Hyclone) and non-essential amino acids (Life Technologies). For the IFN-β induction assays, 0.5 ml of cells at 65,000 cells/ml was placed (seeded) in 24-well plates. After 24 h, each well of cells was transfected with 5 ng WT pUNO-hRIG-I (Invivogen), 6 ng pRL-TK constitutive Renilla luciferase reporter plasmid (Promega) and 150 ng of an IFN-β/Firefly luciferase reporter plasmid using the Lipofectamine 2000 transfection reagent (Life Technologies) following the manufacturer's protocol. Protein expression was allowed to proceed for 24 hours. In parallel, a six-point dilution series of each compound of interest was made in a DMSO vehicle and then diluted further into DMEM such that a constant DMSO concentration of 1% is maintained over the entire drug dilution. The DMEM growth media was aspirated from each well of cells and replaced with DMEM that contains the drug. After 30 minutes, the cells were challenged by transfection with 1 μg of the synthetic stem-loop RNA (SLR14) in Lipofectamine 2000. After 5-6 hours, cells were harvested for luminescence analysis in the following manner: Growth media was aspirated from each well, and 100 μl of passive lysis buffer (Promega) was added. Lysis proceeded for 15 min at room temperature. Lysates were clarified by centrifugation, and 20 μl samples of the supernatant were transferred to a 96-well assay plate for analysis using the Dual-Luciferase Reporter Assay System (Promega). Luminescence was measured using a Biotek Synergy H1 plate reader. The resulting Firefly luciferase activity (i.e. the induction of IFN-0) was normalized to the activity of the constitutively expressed Renilla luciferase to account for differences in confluency, transfection efficiency and cell viability across sample wells.

[2] = biological target: T1, RIG-I; experiment: qRT-PCR of IFN and ISG levels in A549 cells with endogenous RIG-I; format: cell-based; conditions: SLR14 challenge, qRT-PCR normalized to HPRT
Protocol: (§1) In the second assay, inhibition of RIG-I that is endogenously expressed in A549 cells was evaluated by monitoring IFN and ISG levels by qRT-PCR. A549 cells were propagated in T75 flasks containing Dulbecco's Modified Eagle Medium, DMEM, (Life Technologies) supplemented with 10% heat-inactivated fetal bovine serum (Hyclone) and Non-Essential Amino Acids (Life Technologies). For the assay, 0.5 ml of cells at 100,000 cells/ml was seeded in 24-well plates. After 24 h, DMEM growth media was replaced with media containing drug, as described above for the IFN induction assay using HEK293T cells. After 30 minutes, the cells were transfected with 1 μg of the synthetic stem-loop RNA (SLR14), using the Lipofectamine 2000 transfection reagent. After 5-6 hours, cells were harvested and total RNA was isolated using E.Z.N.A total RNA isolation kit (Omega Bio-tek), following the manufacturer's instructions. Genomic DNA contamination was removed by DNase I treatment (Omega Bio-tek) directly on the Mini column. Total RNA was reverse-transcribed into cDNA using iScript Reverse Transcription Supermix (Bio-RAD) according to the manufacturer's instructions. […] Each sample was analyzed in triplicate and normalized to HPRT expression. Gene expression quantification was performed according to the Livak ΔΔCt method.

[3] = tested on: A549 cells; experiment: qRT-PCR of metabolism and stress marker genes (ACTB, GAPDH, p21, BAX) in A549 cells; format: cell-based, human; conditions: p21, BAX by qRT-PCR
Protocol: as §1, with “instructions.” for “instructions. Genomic DNA contamination was removed by DNase I treatment (Omega Bio-tek) directly on the Mini column. Total RNA was reverse-transcribed into cDNA using iScript Reverse Transcription Supermix (Bio-RAD) according to the manufacturer's instructions.”
These experiments were consistent with a target-specific response to the compounds. […] To evaluate interference with cell growth or viability, genes that represent markers of cell metabolism and stress response (ACTB, GAPDH, p21, BAX) were also simultaneously monitored. […]

IC50 ([1]; compound in growth medium, read-out: IC50, inhibition of RIG-I signaling (IFN induction luciferase)): 1250 nM
effect on IFN-β and ISG hRsad2 expression [2]: potent, dose-dependent effect
SMILES: CCC1(CC)C(=O)N=C2C1=C(OCc1ccccc1)C(=O)c1ccccc12 [RIG012, 4-Benzyloxy-3,3-diethyl-2H,3H,5H-benzo[g]indole-2,5-dione]
inhibition of RIG-I signaling / IFN induction, result in words [1]: potent, dose-dependent inhibition of RIG-I signaling
expression of genes involved in cell viability and metabolism [3]: unaffected
